Results on 53 molecules are retold here after ChEMBL document CHEMBL5523735 (J Med Chem, 2024).

Data set [1] can be described thus: Aqueous solubility of compound in SIF at pH 6.8 by spectrometry. The data set is classed as ADME. Conditions: simulated gi fluid.
The nature of data set [2]: Aqueous solubility of compound in double distilled water at pH 7 by spectrometry. Format: physicochemical. Conditions: buffer.
A short description of data set [3]: Aqueous solubility of compound in PBS at pH 7.4 by spectrometry. Conditions: buffer. The data set is classed as physicochemical.
Data set [4] can be described thus: Aqueous solubility of compound in SGF at pH 1.2 by spectrometry. Format: ADME.
Data set [5] addresses T1, P2Y purinoceptor 14 (Homo sapiens) (UniProt Q15391).
T1 sequence (whole entry): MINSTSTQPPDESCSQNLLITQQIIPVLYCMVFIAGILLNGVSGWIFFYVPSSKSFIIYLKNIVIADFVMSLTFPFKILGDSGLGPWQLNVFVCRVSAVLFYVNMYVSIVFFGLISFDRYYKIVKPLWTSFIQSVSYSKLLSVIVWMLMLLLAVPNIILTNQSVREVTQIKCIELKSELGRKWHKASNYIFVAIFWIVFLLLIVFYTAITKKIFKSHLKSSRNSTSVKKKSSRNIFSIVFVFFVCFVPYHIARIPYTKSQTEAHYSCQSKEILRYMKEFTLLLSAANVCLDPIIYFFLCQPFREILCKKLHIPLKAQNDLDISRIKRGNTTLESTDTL
Description: Antagonist activity at P2Y14R (unknown origin) stably expressed in HEK293 cells assessed as inhibition of forskolin-induced cAMP production at 100 nM by cAMP-Glo assay relative to control

Another data set addresses T2, P2Y purinoceptor 14 (Homo sapiens, UniProt Q15391).
T2 sequence (Q15391 whole entry): T1 sequence (whole entry)
The experiment in a line: Antagonist activity at P2Y14R (unknown origin) stably expressed in HEK293 cells assessed as inhibition of forskolin-induced cAMP production by cAMP-Glo assay. Format: functional, cell-based. For orientation: cAMP levels reflect the balance of adenylyl cyclase and phosphodiesterase activity.

The mark [6] stands for this setting: HEK293, filed as antagonist, dose 100.0 nM.

In brackets after ≈: the same amount, converted by molar mass.

For orientation: solubility means the concentration that dissolves in the medium under given conditions. Consider `Cc1ccc(C(=O)Nc2cc(C(=O)O)cc(-c3ccoc3)c2)cc1`, for which the solubility in data set [1] was 0.471 µg/mL (≈ 1.47 µM); in data set [2], 0.078 µg/mL (≈ 0.243 µM); in data set [3], 0.878 µg/mL (≈ 2.73 µM); in data set [4] (simulated gi fluid), 0.069 µg/mL (≈ 0.215 µM). A word on the inhibition: it is the relative decrease from the control value, in per cent. On to `Cc1ccc(Oc2sc(C(=O)O)cc2NC(=O)c2ccc(C)nc2)cn1`, for which, in data set [5] (HEK293, dose 100.0 nM), the inhibition is 30.3%. In general, IC50 refers to the concentration that inhibits the measured activity by half. Turning to `CCc1ccc(Oc2sc(C(=O)O)cc2NC(=O)c2ccc(C)cc2)cc1`, at P2Y purinoceptor 14, the IC50 turned out to be 81.3 nM. The inhibition in data set [5] (setting [6]) is 67.4%. Consider `Cc1ccc(C(=O)Nc2cc(C(=O)O)sc2Oc2cccc(Cl)c2)cc1`, for which the inhibition in data set [5] (HEK293, dose 100.0 nM) was found to be 36.2%. `Cc1ccc(C(=O)Nc2cc(C(=O)O)sc2Oc2cccnc2)cc1`: the inhibition in data set [5] (setting [6]) amounted to 62%. On the same count and under the same terms, then `Cc1ccc(C(=O)Nc2cc(C(=O)O)sc2Oc2ccc(C(C)C)cc2)cc1`, with 54.3%. As for `Cc1ccc(C(=O)Nc2cc(C(=O)O)sc2Oc2ccc(C#N)cc2)cc1`, in data set [5] (HEK293, dose 100.0 nM), the inhibition amounted to 16.2%. The same measure, in the same setting: the value for `Cc1ccc(C(=O)Nc2cc(C(=O)O)sc2Oc2ccc(Cl)cc2)cc1` was 39.9%. For `Cc1ccc(C(=O)Nc2cc(C(=O)O)sc2Oc2ccc(F)cc2)cc1`, at P2Y purinoceptor 14, the IC50 is 60.6 nM. Moreover, the inhibition in data set [5] (setting [6]) worked out at 74.8%. For `Cc1ccc(Oc2sc(C(=O)O)cc2NC(=O)c2ccc(C)cc2)cc1`, in that order: 4.01 nM and 97.4%. For the molecule `Cc1ccc(Oc2sc(C(=O)O)cc2NC(=O)c2cnc(C)cn2)cn1`, at P2Y purinoceptor 14, the IC50 is 1060 nM. Besides, in data set [5] (setting [6]), the inhibition was 71%.

As for `Cc1ccc(C(=O)Nc2cc(C(=O)O)sc2Oc2ccc(C(F)(F)F)cc2)cc1`, in data set [5] (setting [6]), the inhibition stood at 62.6%. Regarding `Cc1ccc(C(=O)Nc2cc(C(=O)O)sc2Oc2ccc(OC(F)(F)F)cc2)cc1`, the inhibition in data set [5] (HEK293, dose 100.0 nM) was determined as 32.7%. In the case of `Cc1ccc(C(=O)Nc2cc(C(=O)O)sc2Oc2ccsn2)cc1`, in data set [5] (setting [6]), the inhibition worked out at 60.3%. Still for that read-out and setting: the value for `Cc1ccc(C(=O)Nc2cc(C(=O)O)sc2Oc2cccc(C(F)(F)F)c2)cc1` was 52.8%. Consider `Cc1ccc(Sc2sc(C(=O)O)cc2NC(=O)c2ccc(C)cc2)cc1`, for which, on P2Y purinoceptor 14, the IC50 worked out at 6.53 nM. The inhibition in data set [5] (setting [6]) was found to be 88.4%. As to `Cc1ccc(C(=O)Nc2cc(C(=O)O)nn2Cc2ccc(F)cc2)cc1`, the solubility in data set [1] was 0.203 µg/mL (≈ 0.574 µM); in data set [2], 0.088 µg/mL (≈ 0.249 µM); in data set [3], 0.318 µg/mL (≈ 0.9 µM); in data set [4] (simulated gi fluid), 0.085 µg/mL (≈ 0.241 µM).

Consider `Cc1ccc(C(=O)Nc2cc(C(=O)O)sc2Oc2ccncc2)cc1`, for which the inhibition in data set [5] (setting [6]) turned out to be 43.5%.

On to `Cc1ccc(C(=O)Nc2cc(C(=O)O)sc2Oc2ccc(C(C)(C)C)cc2)cc1`, for which the inhibition in data set [5] (setting [6]) was 54.4%. `Cc1ccc(C(=O)Nc2cc(C(=O)O)sc2Oc2ccccc2)cc1`: the inhibition in data set [5] (setting [6]) came to 42.3%. As to `CC(=O)c1ccc(Oc2sc(C(=O)O)cc2NC(=O)c2ccc(C)cc2)cc1`, the inhibition in data set [5] (HEK293, dose 100.0 nM) was 34.5%. Regarding `Cc1ccc(Nc2sc(C(=O)O)cc2NC(=O)c2ccc(C)cc2)cc1`, the inhibition in data set [5] (setting [6]) came to 41.7%.

For `Cc1ccc(C(=O)Nc2cc(C(=O)O)sc2Oc2ccccn2)cc1`, the IC50 at P2Y purinoceptor 14 was 1690 nM. Moreover, the inhibition in data set [5] (setting [6]) amounted to 74.9%. Turning to `Cc1ccc(C(=O)Nc2cc(C(=O)O)sc2Oc2ccccc2C(F)(F)F)cc1`, in data set [5] (setting [6]), the inhibition was determined as 57.1%. Still for that read-out and setting: the value for `Cc1ccc(C(=O)Nc2cc(C(=O)O)sc2Oc2ccc(C(=O)O)cc2)cc1` was 44.1%. Consider `O=C(CCCNC(=S)Nc1ccc2c(c1)C(=O)OC21c2ccc(O)cc2Oc2cc(O)ccc21)NCCCC(=O)N1CCC(c2ccc(-c3cc(C(=O)O)cc4cc(-c5ccc(C(F)(F)F)cc5)ccc34)cc2)CC1`, for which, on P2Y purinoceptor 14, the IC50 worked out at 1.52 nM. With `Cc1ccc(Oc2sc(C(=O)O)cc2NC(=O)c2ccc(C(C)C)cc2)cn1`, the inhibition in data set [5] (setting [6]) worked out at 44.3%. On the same count and under the same terms, then `COc1ccccc1Oc1sc(C(=O)O)cc1NC(=O)c1ccc(C)cc1`, with 48.1%; and `Cc1ccc(C(=O)Nc2cc(C(=O)O)sc2Oc2ccccc2C)cc1`, with 45.8%. As to `O=C(O)c1cc(-c2ccc(C3CCNCC3)cc2)c2ccc(-c3ccc(C(F)(F)F)cc3)cc2c1` [PPTN], the solubility in data set [1] was less than 0.005 µg/mL; in data set [2], less than 0.005 µg/mL; in data set [3] it was less than 0.005 µg/mL; in data set [4] (SGF, read-out: solubility), less than 0.005 µg/mL.

Regarding `Cc1ccc(C(=O)Nc2cc(C(=O)O)sc2Oc2ccc(S(C)(=O)=O)cc2)cc1`, the inhibition in data set [5] (setting [6]) was found to be 62.8%.

`Cc1ccc(C(=O)Nc2cc(C(=O)O)sc2Oc2cccc(C)c2)cc1`: the inhibition in data set [5] (setting [6]) worked out at 55.8%. For the molecule `Cc1ccc(Oc2sc(C(=O)O)cc2NC(=O)c2ccc(C(F)(F)F)cc2)cn1`, the inhibition in data set [5] (HEK293, dose 100.0 nM) amounted to 39.7%.

Consider `Cc1ccc(C(=O)Nc2cc(C(=O)O)sc2Oc2ccc(C)nc2)cc1`, for which the solubility was 0.189 µg/mL (≈ 0.513 µM) in data set [1]; 0.067 µg/mL (≈ 0.182 µM) in data set [2]; 2.37 µg/mL (≈ 6.43 µM) in data set [3]; 0.844 µg/mL (≈ 2.29 µM) in data set [4] (SGF, read-out: solubility). In addition, at P2Y purinoceptor 14, the IC50 amounted to 6.53 nM. In data set [5] (setting [6]), the inhibition was 99.4%. Consider `CCc1ccc(C(=O)Nc2cc(C(=O)O)sc2Oc2ccc(C)nc2)cc1`, for which, in data set [5] (setting [6]), the inhibition was 59.8%. Still for that read-out and setting: then `Cc1ccc(C(=O)Nc2cc(C(=O)O)sc2Oc2ccccc2Cl)cc1`, with 40.4%. `Cc1ccc(Oc2sc(C(=O)O)cc2NC(=O)c2cnc(C)nc2)cn1`: on P2Y purinoceptor 14, the IC50 amounted to 3130 nM. In addition, the inhibition in data set [5] (setting [6]) was 83.9%. On the same counts, the results for `COc1ccc(Oc2sc(C(=O)O)cc2NC(=O)c2ccc(C)cc2)cc1` are 24500 nM and 69.8%. As to `Cc1ccc(Oc2sc(C(=O)O)cc2NC(=O)c2ccc(N(C)C)cc2)cn1`, in data set [5] (setting [6]), the inhibition is 40.8%. On the same count and under the same terms, then `COc1cccc(Oc2sc(C(=O)O)cc2NC(=O)c2ccc(C)cc2)c1`, with 63.2%.

As for `C#Cc1ccc(C(=O)Nc2cc(C(=O)O)sc2Oc2ccc(C)nc2)cc1`, the IC50 on P2Y purinoceptor 14 is 7.51 nM. Moreover, the inhibition in data set [5] (setting [6]) is 116%. On to `Cc1ccc(Oc2sc(C(=O)O)cc2NC(=O)c2cnn(C)c2)cn1`, for which the inhibition in data set [5] (setting [6]) was found to be 42.8%.

For the molecule `Cc1ccc(C(=O)Nc2cc(C(=O)O)sc2Oc2cccc(F)c2)cc1`, the IC50 on P2Y purinoceptor 14 is 87.7 nM. In data set [5] (setting [6]), the inhibition is 69.6%.

In the case of `CCCc1ccc(C(=O)Nc2cc(C(=O)O)sc2Oc2ccc(C)nc2)cc1`, the inhibition in data set [5] (setting [6]) worked out at 44.3%. For `Cc1ccc(Oc2sc(C(=O)O)cc2NC(=O)c2ccccc2)cn1`, the IC50 on P2Y purinoceptor 14 was found to be 13 nM. In data set [5] (setting [6]), the inhibition was 81.9%. In the case of `Cc1ccc(Oc2sc(C(=O)O)cc2NC(=O)c2ccc(F)cc2)cn1`, the inhibition in data set [5] (setting [6]) was 46.6%. As for `Cc1ccc(Oc2sc(C(=O)O)cc2NC(=O)c2ccc(Cl)cc2)cn1`, the inhibition in data set [5] (HEK293, dose 100.0 nM) was 21%.

Turning to `Cc1ccc(C(=O)Nc2cc(C(=O)O)sc2Oc2ccccc2F)cc1`, the IC50 on P2Y purinoceptor 14 worked out at 104 nM. Further, the inhibition in data set [5] (setting [6]) amounted to 66%.

In the case of `CCCc1ccc(Oc2sc(C(=O)O)cc2NC(=O)c2ccc(C)cc2)cc1`, the IC50 on P2Y purinoceptor 14 stood at 124 nM. Besides, the inhibition in data set [5] (setting [6]) was found to be 66.3%. For `Cc1ccc(C(=O)Nc2cc(C(=O)O)sc2Oc2ccc(C)nc2)nc1`, the inhibition in data set [5] (setting [6]) is 60.1%. In the case of `Cc1ccc(Oc2sc(C(=O)O)cc2NC(=O)c2ccc(C#N)cc2)cn1`, in data set [5] (HEK293, dose 100.0 nM), the inhibition turned out to be 33%. In the case of `CC(=O)Nc1ccc(Oc2sc(C(=O)O)cc2NC(=O)c2ccc(C)cc2)cc1`, at P2Y purinoceptor 14, the IC50 amounted to 18600 nM. Moreover, the inhibition in data set [5] (setting [6]) worked out at 66%. Turning to `Cc1ccc(Oc2sc(C(=O)O)cc2NC(=O)c2ccc(C(C)(C)C)cc2)cn1`, in data set [5] (HEK293, dose 100.0 nM), the inhibition stood at 12.2%.
